Data published in patent US20260223841A1 (priority 2023, published 2026).
Where two headings read alike, the source gives them in different places.

Tests used:
[1] = test system: Xylella fastidiosa subsp. multiplex IVIA5901; assay: microbe, parasite or virus in culture; assay type: cell-based; details: 0.5 h, read-out: minimum bactericidal concentration (MBC)
[2] = test system: Xylella fastidiosa subsp. pauca DeDonno; assay: microbe, parasite or virus in culture; assay type: cell-based; details: 0.5 h, read-out: minimum bactericidal concentration (MBC)
[3] = test system: Erwinia amylovora EPS101; assay type: cell-based
[4] = test system: Xylella fastidiosa subsp. fastidiosa IVIA5387.2; assay type: in vivo, Prunus dulcis; details: 33 mg/ml trunk microinjection, 2 mg/plant, preventive + curative
[5] = test system: Liberibacter crescens strain BT-1 (cultured surrogate for Candidatus Liberibacter spp.); details: 100 and 250 μg/ml; 30 or 120 minutes of contact
[6] = test system: Xylella fastidiosa subsp. fastidiosa IVIA5387.2
[7] = test system: Liberibacter crescens strain BT-1 (cultured surrogate for Candidatus Liberibacter spp.); assay: microbe, parasite or virus in culture; details: 0.5 h, read-out: minimum bactericidal concentration (MBC)
[8] = test system: Xylella fastidiosa subsp. fastidiosa IVIA5387.2; assay: microbe, parasite or virus in culture; details: 0.5 h, read-out: minimum bactericidal concentration (MBC)
[9] = 50 μg/ml, after 30 min of contact
[10] = 50 μg/ml, after 120 min of contact

SMILES: CCCCCCCCCCCC(=O)OCC(O)CO (stereo not shown) [Compound of formula (I), 2,3-dihydroxypropyl dodecanoate]
- MBC [1]: < 250 µg/mL
- MBC [2]: < 250 µg/mL
- bactericidal effect (bacterial growing, not quantitative) [3]: no bactericidal effect
- severity scale score (almond leaf scorch, 0-5) ([4]; 55 days after infection): 0.11
- severity scale score (almond leaf scorch, 0-5) ([4]; 62 days after infection): 0.44
- severity scale score (almond leaf scorch, 0-5) ([4]; 82 days after infection): 0.42
- severity scale score (almond leaf scorch, 0-5) ([4]; 115 days after infection): 1.17
- severity scale score (almond leaf scorch, 0-5) ([4]; 140 days after infection): 2.33
- mortality (no growth observed) [5]: about 100%
- survival [6, 9]: about 27.6%
- survival (log CFU/ml) [6, 9]: 2.26 log CFU/ml
- survival [6, 10]: ~23.1%
- survival (Log CFU/ml) [6, 10]: 1.87 Log CFU/ml
- mortality (no growth observed) ([6]; 100 and 75 μg/ml, 30 or 120 minutes of contact): about 100%
- MBC [7]: < 100 µg/mL
- MBC [8]: ~50 µg/mL
